The values below come from patent US6777412B2 (priority 1990, dated 2004).

Assay type in all cases: in vivo
In assay [1] the test system is Erysiphe graminis tritici. The experiment in a line: Foliar fungal disease test on plants: Erysiphe graminis tritici (Egt). Particulars: 100 ppm active ingredient foliar spray plus root drench (approx. 40 ppm a.i. in dry soil); plants inoculated 24 hours before treatment. How it is done: (§1) The compounds were tested against a variety of foliar fungal diseases of plants. The technique employed was as follows.
(§2) The plants were grown in John Innes Potting Compost (No.1 or 2) in 4 cm diameter minipots. The test compounds were formulated either by bead milling with aqueous Dispersol T or as a solution in acetone or acetone/ethanol which was diluted to the required concentration immediately before use. For the foliage diseases, the formulations (100 ppm active ingredient except where otherwise indicated) were sprayed onto the foliage and applied to the roots of the plants in the soil. The sprays were applied to maximum retention and the root drenches to a final concentration equivalent to approximately 40 ppm a.i. in dry soil. Tween 20, to give a final concentration of 0.05%, was added when the sprays were applied to cereals.
(§3) For most of the tests the compound was applied to the soil (roots) and to the foliage (by spraying) one or two days before the plant was inoculated with the disease. An exception was the test on Erysiphe graminis in which the plants were inoculated 24 hours before treatment. Foliar pathogens were applied by spray as spore suspensions onto the leaves of test plants. After inoculation, the plants were put into an appropriate environment to allow infection to proceed and then incubated until the disease was ready for assessment. The period between inoculation and assessment varied from four to fourteen days according to the disease and environment.
(§4) The disease control vas recorded by the following grading:
(§5) 3=trace-5% of disease on untreated plants
(§6) 2=6-25% of disease on untreated plants
(§7) 1=26-59% of disease on untreated plants
(§8) 0=60-100% of disease on untreated plants
Egt Erysiphe graminis tritici

For assay [2], the system named is Septoria nodorum. In words: Foliar fungal disease test on plants: Septoria nodorum (Sn). Particulars: 100 ppm active ingredient foliar spray plus root drench (approx. 40 ppm a.i. in dry soil), one or two days before inoculation. As to the method: as §1, §2, §3, §4, §5, §6, §7, §8
In assay [3] the test system is Pyricularia oryzae. To be noted: 100 ppm active ingredient foliar spray plus root drench (approx. 40 ppm a.i. in dry soil), one or two days before inoculation.
The test system of assay [4] is Plasmopara viticola. In words: Foliar fungal disease test on plants: Plasmopara viticola (Pv). To be noted: 100 ppm active ingredient foliar spray plus root drench (approx. 40 ppm a.i. in dry soil), one or two days before inoculation. How it is done: as §1, §2, §3, §4, §5, §6, §7, §8
Assay [5] relates to Puccinia recondita. The experiment in a line: Foliar fungal disease test on plants: Puccinia recondita (Pr). To be noted: 100 ppm active ingredient foliar spray plus root drench (approx. 40 ppm a.i. in dry soil), one or two days before inoculation. As to the method:
as §1, §2, §3, §4, §5, §6, §7, §8

In assay [6] the test system is Erysiphe graminis hordei. The experiment in a line: Foliar fungal disease test on plants: Erysiphe graminis hordei (Egh). To be noted: 100 ppm active ingredient foliar spray plus root drench (approx. 40 ppm a.i. in dry soil); plants inoculated 24 hours before treatment. As to the method:
as §1, §2, §3, §4, §5, §6, §7, §8
Egh Erysiphe graminis hordei

The test system of assay [7] is Venturia inaequalis. The experiment in a line: Foliar fungal disease test on plants: Venturia inaequalis (Vi). To be noted: 100 ppm active ingredient foliar spray plus root drench (approx. 40 ppm a.i. in dry soil), one or two days before inoculation. As to the method: as §1, §2, §3, §4, §5, §6, §7, §8
Assay [8] concerns Phytophthora infestans lycopersici. Particulars: 100 ppm active ingredient foliar spray plus root drench (approx. 40 ppm a.i. in dry soil), one or two days before inoculation.

Structures are written as SMILES.

`CO/C=C(/C(=O)OC)c1ccccc1Oc1cc(OCc2ccncn2)ncn1` [250 of Table I]: the “disease control grading, Egt (Erysiphe graminis tritici)” value (“disease control grading, Egt” for short) in assay [1] is given as 4 (4=no disease). Also, the “disease control grading, Sn (Septoria nodorum)” value (“disease control grading, Sn” for short) in assay [2] was 4 (4=no disease). Also, in assay [3], the “disease control grading, Po (Pyricularia oryzae)” value (from here on “disease control grading, Po”) is reported as 2 (2=6-25% of disease on untreated plants). In addition, the “disease control grading, Pv (Plasmopara viticola)” value (from here on “disease control grading, Pv”) in assay [4] is 4 (4=no disease).
With `CO/C=C(/C(=O)OC)c1ccccc1Oc1cc(OCCc2ccccc2Cl)ncn1` [368 of Table I], in assay [5], the “disease control grading, Pr (Puccinia recondita)” value (from here on “disease control grading, Pr”) is given as 4 (4=no disease). For the same compound, in assay [6], the “disease control grading, Egh (Erysiphe graminis hordei)” value (“disease control grading, Egh” below) is given as 4 (4=no disease). In assay [3], the “disease control grading, Po” value is on record as 3 (3=trace-5% of disease on untreated plants). Further, the “disease control grading, Vi (Venturia inaegualis)” value (from here on “disease control grading, Vi”) in assay [7] is 4 (4=no disease). In addition, in assay [4], the “disease control grading, Pv” value is on record as 4 (4=no disease). The “disease control grading, Pil (Phytophthora infestans lycopersici)” value (“disease control grading, Pil” for short) in assay [8] was 3 (3=trace-5% of disease on untreated plants).
As for `CO/C=C(/C(=O)OC)c1ccccc1Oc1cc(OC(C#N)c2ccccc2)ncn1` (stereo not shown) [369 of Table I], in assay [5], the “disease control grading, Pr” value was 4 (4=no disease). The “disease control grading, Egh” value in assay [6] is 4 (4=no disease). Besides, the “disease control grading, Po” value in assay [3] is reported as 4 (4=no disease). For the same compound, the “disease control grading, Vi” value in assay [7] was 4 (4=no disease). The “disease control grading, Pv” value in assay [4] was 4 (4=no disease). The “disease control grading, Pil” value in assay [8] was 3 (3=trace-5% of disease on untreated plants).
On to `CO/C=C(/C(=O)OC)c1ccccc1Oc1cc(OCCc2c(F)cccc2F)ncn1` [370 of Table I], for which, in assay [5], the “disease control grading, Pr” value is 4 (4=no disease). Besides, the “disease control grading, Egh” value in assay [6] was 4 (4=no disease). For the same compound, the “disease control grading, Po” value in assay [3] is listed as 4 (4=no disease). Besides, the “disease control grading, Vi” value in assay [7] is 4 (4=no disease). Besides, the “disease control grading, Pv” value in assay [4] is 4 (4=no disease). Moreover, the “disease control grading, Pil” value in assay [8] is 4 (4=no disease).
`CO/C=C(/C(=O)OC)c1ccccc1Oc1cc(OC(c2ccccc2)C(F)(F)F)ncn1` (stereo not shown) [371 of Table I]: in assay [5], the “disease control grading, Pr” value is listed as 4 (4=no disease). Moreover, the “disease control grading, Egh” value in assay [6] is 4 (4=no disease). In addition, the “disease control grading, Po” value in assay [3] is listed as 4 (4=no disease). The “disease control grading, Vi” value in assay [7] is 4 (4=no disease). Further, the “disease control grading, Pv” value in assay [4] is reported as 4 (4=no disease). Besides, the “disease control grading, Pil” value in assay [8] is reported as 0 (0=60-100% of disease on untreated plants).
`CO/C=C(/C(=O)OC)c1ccccc1Oc1cc(OCCc2c(F)cccc2Cl)ncn1` [372 of Table I]: the “disease control grading, Pr” value in assay [5] is reported as 4 (4=no disease). For the same compound, the “disease control grading, Egh” value in assay [6] is recorded as 4 (4=no disease). Moreover, in assay [3], the “disease control grading, Po” value is on record as 4 (4=no disease). In addition, the “disease control grading, Vi” value in assay [7] is recorded as 4 (4=no disease). In addition, in assay [4], the “disease control grading, Pv” value was 4 (4=no disease). In assay [8], the “disease control grading, Pil” value was 4 (4=no disease).
Turning to `CO/C=C(/C(=O)OC)c1ccccc1Oc1cc(OCCc2c(Cl)cccc2Cl)ncn1` [373 of Table I], in assay [5], the “disease control grading, Pr” value is recorded as 4 (4=no disease). Also, the “disease control grading, Egh” value in assay [6] is on record as 4 (4=no disease). For the same compound, the “disease control grading, Po” value in assay [3] was 4 (4=no disease). In addition, the “disease control grading, Vi” value in assay [7] was 4 (4=no disease). In assay [4], the “disease control grading, Pv” value is 4 (4=no disease). For the same compound, the “disease control grading, Pil” value in assay [8] is listed as 3 (3=trace-5% of disease on untreated plants).
Take `CO/C=C(/C(=O)OC)c1ccccc1Oc1cc(OCc2c(F)cccc2F)ncn1` [374 of Table I]: the “disease control grading, Pr” value in assay [5] is reported as 4 (4=no disease). Further, in assay [6], the “disease control grading, Egh” value is recorded as 4 (4=no disease). Also, in assay [3], the “disease control grading, Po” value is given as 4 (4=no disease). For the same compound, in assay [7], the “disease control grading, Vi” value was 4 (4=no disease). Further, the “disease control grading, Pv” value in assay [4] is 4 (4=no disease). Also, the “disease control grading, Pil” value in assay [8] is listed as 4 (4=no disease).
`CO/C=C(/C(=O)OC)c1ccccc1Oc1cc(Nc2ccccc2OC)ncn1` [380 of Table I]: the “disease control grading, Pr” value in assay [5] is reported as 4 (4=no disease). Further, the “disease control grading, Egh” value in assay [6] is 4 (4=no disease). Besides, the “disease control grading, Po” value in assay [3] was 4 (4=no disease). Further, the “disease control grading, Vi” value in assay [7] is recorded as 4 (4=no disease). In addition, in assay [4], the “disease control grading, Pv” value is recorded as 4 (4=no disease). The “disease control grading, Pil” value in assay [8] is reported as 3 (3=trace-5% of disease on untreated plants).
As for `CO/C=C(/C(=O)OC)c1ccccc1Oc1cc(OS(=O)(=O)c2ccccc2C#N)ncn1` [381 of Table I], the “disease control grading, Pr” value in assay [5] is reported as 2 (2=6-25% of disease on untreated plants). In addition, in assay [6], the “disease control grading, Egh” value is given as 0 (0=60-100% of disease on untreated plants). Besides, the “disease control grading, Po” value in assay [3] is 2 (2=6-25% of disease on untreated plants). In addition, in assay [7], the “disease control grading, Vi” value is given as 0 (0=60-100% of disease on untreated plants). The “disease control grading, Pv” value in assay [4] was 0 (0=60-100% of disease on untreated plants). For the same compound, the “disease control grading, Pil” value in assay [8] is 0 (0=60-100% of disease on untreated plants).
For `CO/C=C(/C(=O)OC)c1ccccc1Oc1cc(OCCOc2c(F)cccc2F)ncn1` [382 of Table I], in assay [5], the “disease control grading, Pr” value is recorded as 4 (4=no disease). For the same compound, the “disease control grading, Egh” value in assay [6] is 4 (4=no disease). Moreover, the “disease control grading, Po” value in assay [3] is listed as 4 (4=no disease). In assay [7], the “disease control grading, Vi” value is on record as 4 (4=no disease). Further, the “disease control grading, Pv” value in assay [4] was 4 (4=no disease). Moreover, the “disease control grading, Pil” value in assay [8] is on record as 4 (4=no disease).
For the compound `CO/C=C(/C(=O)OC)c1ccccc1Oc1cc(OC/C=C/c2ccccc2C#N)ncn1` [395 of Table I], the “disease control grading, Pr” value in assay [5] is 4 (4=no disease). Further, the “disease control grading, Egt” value in assay [1] is on record as 4 (4=no disease). Further, the “disease control grading, Sn” value in assay [2] was 3 (3=trace-5% of disease on untreated plants). In addition, in assay [3], the “disease control grading, Po” value is on record as 4 (4=no disease). Moreover, the “disease control grading, Vi” value in assay [7] is 4 (4=no disease). In addition, the “disease control grading, Pv” value in assay [4] is 4 (4=no disease).
`CO/C=C(/C(=O)OC)c1ccccc1Oc1cc(OCCOc2ccccc2C#N)ncn1` [396 of Table I]: the “disease control grading, Pr” value in assay [5] is listed as 4 (4=no disease). For the same compound, in assay [1], the “disease control grading, Egt” value is 4 (4=no disease). Moreover, the “disease control grading, Sn” value in assay [2] is listed as 4 (4=no disease). Besides, in assay [3], the “disease control grading, Po” value is recorded as 4 (4=no disease). Also, in assay [7], the “disease control grading, Vi” value is 3 (3=trace-5% of disease on untreated plants). The “disease control grading, Pv” value in assay [4] is recorded as 4 (4=no disease).
